Patent US20060166941A1, “Treatment and/or prevention of non-viral epithelial damage” (Epistem Limited, priority 2003, published 2006)
Values joined by “and” are separate entries in the source; they are usually repeats but may differ in a detail not shown here. Equal entries are not always repeated. Structures can show the parent of a compound that is named as a salt.

Columns and labels:
oral mucosa = test: In vivo protection of oral mucosa following chemotherapy (5FU) damage, ventral tongue cellularity; design: species or system mice; conditions: 50 mg/kg intra-peritoneal 1 hr prior to 5FU (400 mg/kg x 2) and daily for three days; versus vehicle
Description: In Vivo Protection of Oral Mucosa Following Chemotherapy Damage. The ability of foscarnet (phosphonoformic acid trisodium salt hexahydrate) to prevent cytotoxic damage to oral mucosa was illustrated by the following experiment. The model of cytotoxic insult used was treatment with 2 doses of 400 mg/kilogram bodyweight 5-Flurouracil 6 hours apart. Such cytotoxic treatment provides a model of chemotherapy administered to patients undergoing treatment for cancer. Experimental groups, each of five mice, were established as set out below: Group 2: Received intra-peritoneal injection, containing 50 mg foscarnet/kilogram bodyweight, in sterile water, one hour prior to the first cytotoxic treatment (400 mg 5-Flurouracil/kilogram bodyweight). Received one further identical injection of foscarnet (50 mg/kilogram bodyweight) on each of the three days following cytotoxic treatment. […] Tissue sections were stained with thionin and using a Zeiss AxioHOME the number of cells were assessed in both the basal and suprabasal layers of the ventral surface of the tongue. The area from the basal layer to the stratum corneum stratum granulosum interface was measured along with the length of the basal layer. […] From these measurements the damage that the 5FU had caused to the tongue could be assessed as overall cellularity of the tongue or the total number of cells/unit area (mm^2). […]

[1] = system: clonogenic stem cells of the digestive epithelium; test: In vivo protection of intestinal epithelium clonogenic stem cells, chemotherapy drug damage, independent experiment 2; design: species or system mice
Description: In Vivo Protection of Intestinal Epithelium Clonogenic Stem Cells—Chemotherapy Drug Damage—Independent Experiment 2.
The data presented in Example 4 were expanded in the following study, in which the ability of foscarnet (phosphonoformic acid trisodium salt hexahydrate) to prevent cytotoxic damage to clonogenic stem cells of the digestive epithelium was investigated using the following experiment.
The model of cytotoxic insult used was treatment with 2 doses of 5-Flurouracil 6 hours apart at 400 mg of 5-Fluorouracil/kilogram bodyweight. Such cytotoxic treatment provides a model of chemotherapy administered to patients undergoing treatment for cancer.
8 experimental groups, each of six mice, were established as set out below:
Group 1: Received intra-peritoneal injection, containing 50 mg foscarnet/kilogram bodyweight, in sterile water, one hour prior to the first cytotoxic treatment. Received one further identical injection on each of the three days following cytotoxic treatment.
Group 2: Received intra-peritoneal injection, containing 50 mg foscarnet/kilogram bodyweight, in sterile water, one hour prior to the first cytotoxic treatment.
Group 3: Received intra-peritoneal injection, containing 50 mg foscarnet/kilogram bodyweight, in sterile water on each of the three days following cytotoxic treatment.
Group 4: Received intra-peritoneal injection, containing 50 mg foscarnet/kilogram bodyweight, in sterile water, 5 minutes prior to the first cytotoxic treatment. Received one further identical injection on each of the three days following cytotoxic treatment.
Group 5: Vehicle control. Received intra-peritoneal injection, of sterile water, one hour prior to the first cytotoxic treatment. Received one further identical injection on each of the days following cytotoxic treatment.
Group 6: Vehicle control. Received intra-peritoneal injection, of sterile water, one hour prior to the first cytotoxic treatment.
Group 7: Vehicle control. Received intra-peritoneal injection, of sterile water, on each of the three days following cytotoxic treatment.
Group 8: Vehicle control. Received intra-peritoneal injection, of sterile water, 5 minutes prior to the first cytotoxic treatment. Received one further identical injection on each of the three days following cytotoxic treatment.
On the fourth day after treatment the animals of each group were killed, and intestinal tissue harvested for histological analysis. Tissue sections were stained with haemotoxylin and eosin, and were analysed for the presence of regenerating intestinal crypts. Regenerating intestinal crypts are derived from one or more surviving clonogenic stem cells, whereas sterilised crypts (containing no surviving stem cells) disappear within two days of irradiation. The number of regenerating crypts per intestinal circumference was counted, and the mean crypt width measured. Scores for each animal were then corrected to account for the probability of preferentially scoring larger crypts according to the following equation: [formula]
For each treatment a Protection Factor was calculated using the following equation: corrected crypts/circumference treated corrected crypts/circumference untreated (vehicle)

[2] = 400 mg/kg 5FU x 2 6 hours apart plus 50 mg foscarnet/kg -5 minutes, D1, D2, D3, group Ave
[3] = 400 mg/kg 5FU x 2 6 hours apart plus 50 mg foscarnet/kg -5 minutes, D1, D2, D3, individual mice
[4] = 400 mg/kg 5FU x 2 6 hours apart plus 50 mg foscarnet/kg -1 hr only, group Ave
[5] = 400 mg/kg 5FU x 2 6 hours apart plus 50 mg foscarnet/kg -1 hr only, individual mice
[6] = 400 mg/kg 5FU x 2 6 hours apart plus 50 mg foscarnet/kg -1 hr, D1, D2, D3, group Ave
[7] = 400 mg/kg 5FU x 2 6 hours apart plus 50 mg foscarnet/kg -1 hr, D1, D2, D3, individual mice
[8] = 400 mg/kg 5FU x 2 6 hours apart plus 50 mg foscarnet/kg D1, D2, D3, group Ave
[9] = 400 mg/kg 5FU x 2 6 hours apart plus 50 mg foscarnet/kg D1, D2, D3, individual mice
[10] = group 1: 50 mg/kg foscarnet 1 hr prior to first 5-Flurouracil dose (400 mg/kg x 2) and 3 days after

O=C(O)P(=O)(O)O [foscarnet, phosphonoformic acid trisodium salt hexahydrate]
numbers of cells per unit area in the epithelium covering the ventral surface of the tongue (FIG. 4) (oral mucosa): extra cells per unit area gained | Protection Factor ([1]; 50 mg foscarnet/kg 5 minutes prior to 1st dose of 5-Flurouracil (400 mg/kg x 2 6 hrs apart) and D1, D2 & D3): 1.11 | Protection Factor ([1]; 50 mg foscarnet/kg 1 hr prior to 1st dose of 5-Flurouracil (400 mg/kg x 2 6 hrs apart)): 1.12 | Protection Factor ([1]; 50 mg foscarnet/kg 1 hr prior to 1st dose of 5-Flurouracil (400 mg/kg x 2 6 hrs apart) and D1, D2 & D3): 1.62 | Protection Factor ([1]; 50 mg foscarnet/kg D1, D2, D3 following 5-Flurouracil (400 mg/kg x 2 6 hrs apart)): 1.13 | corrected crypts/circumference [1, 2]: 25.12 | no. crypts/circumference [1, 2]: 26.97 | corrected crypts/circumference [1, 3]: 13.01 and 39.74 and 38.64 and 15.78 and 24.39 and 19.14 | no. crypts/circumference [1, 3]: 13.20 and 46.50 and 40.10 and 16.30 and 24.30 and 21.40 | corrected crypts/circumference [1, 4]: 22.70 | no. crypts/circumference [1, 4]: 24.62 | corrected crypts/circumference [1, 5]: 35.09 and 16.52 and 22.90 and 30.41 and 11.28 and 20.01 | no. crypts/circumference [1, 5]: 42.50 and 16.20 and 24.70 and 32.80 and 11.70 and 19.80 | corrected crypts/circumference [1, 6]: 29.76 | no. crypts/circumference [1, 6]: 31.28 | corrected crypts/circumference [1, 7]: 42.10 and 17.28 and 33.67 and 29.92 and 31.88 and 23.71 | no. crypts/circumference [1, 7]: 44.90 and 16.00 and 35.70 and 32.50 and 34.30 and 24.30 | corrected crypts/circumference [1, 8]: 19.78 | no. crypts/circumference [1, 8]: 19.58 | corrected crypts/circumference [1, 9]: 13.74 and 9.34 and 35.87 and 23.12 and 21.45 and 15.14 | no. crypts/circumference [1, 9]: 14.10 and 8.50 and 35.50 and 24.10 and 19.20 and 16.10 | numbers of intestinal crypts after exposure to 5-Flurouracil ([1]; Groups 1, 2, 3 and 4 (50 mg foscarnet/kg regimens)): increased numbers of intestinal crypts | more crypts compared to mice treated with vehicle alone [1, 10]: ~50% | more small intestinal clonogenic stem cells survived [1, 10]: at least 50%
